Paper PMC7976604 (ACS Catalysis, 2021)

Molecular target: T1, PA0254/HudA (PA0254^UbiX) (Pseudomonas aeruginosa, UniProt Q9I6N5)
T1 sequence (Q9I6N5 1-496): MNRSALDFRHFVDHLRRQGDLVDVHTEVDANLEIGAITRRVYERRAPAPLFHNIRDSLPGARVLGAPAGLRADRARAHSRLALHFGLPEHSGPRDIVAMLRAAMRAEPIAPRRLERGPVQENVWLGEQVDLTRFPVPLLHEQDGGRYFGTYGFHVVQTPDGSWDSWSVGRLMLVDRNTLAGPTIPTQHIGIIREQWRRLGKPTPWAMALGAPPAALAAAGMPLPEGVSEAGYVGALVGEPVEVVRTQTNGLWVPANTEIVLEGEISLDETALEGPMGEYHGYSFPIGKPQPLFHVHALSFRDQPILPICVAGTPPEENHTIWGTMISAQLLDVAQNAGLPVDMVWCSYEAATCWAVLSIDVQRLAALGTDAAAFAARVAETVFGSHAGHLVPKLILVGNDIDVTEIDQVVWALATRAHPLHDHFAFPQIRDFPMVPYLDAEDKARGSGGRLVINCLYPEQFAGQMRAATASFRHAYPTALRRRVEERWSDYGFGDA
Assay: inhibition of P2C decarboxylation, histidine-eluted enzyme
Assay type: biochemical
Conditions: read-out: % inhibition at 10 mM

c1c[nH]cn1 [imidazole]
inhibition at 10000 µM: ~50%
